“And” between values parts separate entries of the source, which are not always exact repeats. Equal values may be shown once. Toxic doses and inconclusive results are not listed. Cut-off read from the data, not from the text of the source: active = T/C of 150% or more; inactive = T/C below 125%.
Test system: L1210 leukemia ip in BDF1 mice, survival T/C
Test: NCI In Vivo Anticancer Drug Screen. Data for tumor model L1210 Leukemia (intraperitoneal) in B6D2F1 (BDF1) mice
Conditions: endpoint: mean survival time, higher = longer survival
How it was run: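 Transplantable tumor model; survival measured in treated vs vehicle control mice. Value = treated/control.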

[1] = dose: 100.0 mg/kg/injection, schedule: Q04DX003 (ip), vehicle: Klucel (hydroxypropylcellulose) (HPC)
[2] = dose: 200.0 mg/kg/injection, schedule: Q04DX003 (ip), vehicle: Klucel (hydroxypropylcellulose) (HPC)
[3] = dose: 400.0 mg/kg/injection, schedule: Q04DX003 (ip), vehicle: Klucel (hydroxypropylcellulose) (HPC)
[4] = dose: 100.0 mg/kg/injection, schedule: Q01DX001 (ip), vehicle: carboxymethylcellulose (CMC)
[5] = dose: 200.0 mg/kg/injection, schedule: Q01DX001 (ip), vehicle: carboxymethylcellulose (CMC)
[6] = dose: 400.0 mg/kg/injection, schedule: Q01DX001 (ip), vehicle: carboxymethylcellulose (CMC)
[7] = dose: 100.0 mg/kg/injection, schedule: Q01DX009 (ip), vehicle: saline with Tween-80
[8] = dose: 100.0 mg/kg/injection, schedule: Q01DX009 (ip), vehicle: Klucel (hydroxypropylcellulose) (HPC)
[9] = dose: 100.0 mg/kg/injection, schedule: Q01DX001 (ip), vehicle: Klucel (hydroxypropylcellulose) (HPC)
[10] = dose: 200.0 mg/kg/injection, schedule: Q01DX001 (ip), vehicle: Klucel (hydroxypropylcellulose) (HPC)
[11] = dose: 200.0 mg/kg/injection, schedule: Q01DX009 (ip), vehicle: Klucel (hydroxypropylcellulose) (HPC)
[12] = dose: 400.0 mg/kg/injection, schedule: Q01DX001 (ip), vehicle: Klucel (hydroxypropylcellulose) (HPC)
[13] = dose: 100.0 mg/kg/injection, schedule: Q04DX003 (ip), vehicle: saline
[14] = dose: 200.0 mg/kg/injection, schedule: Q04DX003 (ip), vehicle: saline
[15] = dose: 400.0 mg/kg/injection, schedule: Q04DX003 (ip), vehicle: saline
[16] = dose: 200.0 mg/kg/injection, schedule: Q01DX009 (ip), vehicle: saline with Tween-80
[17] = dose: 400.0 mg/kg/injection, schedule: Q01DX009 (ip), vehicle: saline with Tween-80

Measured: T/C

O=C(O)CSCc1ccc(Cl)cc1
inactive: dose: 100.0 mg/kg/injection, schedule: Q01DX001 (ip), vehicle: acetone 95 % of control | [1] 94 % of control | dose: 200.0 mg/kg/injection, schedule: Q01DX001 (ip), vehicle: acetone 97 % of control | [2] 98 % of control | dose: 400.0 mg/kg/injection, schedule: Q01DX001 (ip), vehicle: acetone 97 % of control | [3] 98 % of control

CC(C)(C)c1cc(NS(=O)(=O)c2ccccc2)c(N=[N+]=[N-])c(Cl)c1NS(=O)(=O)c1ccccc1
inactive: dose: 100.0 mg/kg/injection, schedule: Q04DX002 (ip), vehicle: saline with Tween-80 102 % of control | dose: 200.0 mg/kg/injection, schedule: Q04DX002 (ip), vehicle: saline with Tween-80 91 % of control | dose: 400.0 mg/kg/injection, schedule: Q04DX002 (ip), vehicle: saline with Tween-80 102 % of control

COC(C)C1(C)NC(=O)NC1=O (centres undefined)
inactive: dose: 100.0 mg/kg/injection, schedule: Q01DX001 (ip), vehicle: saline 114 % of control | dose: 200.0 mg/kg/injection, schedule: Q01DX001 (ip), vehicle: saline 110 % of control | dose: 400.0 mg/kg/injection, schedule: Q01DX001 (ip), vehicle: saline 102 % of control

O=c1[nH]c2cc(Br)ccc2c2ccccc12
inactive: [4] 95 % of control | [5] 101 % of control | [6] 94 % of control

CCC(C)C(C#N)(CCN1CCCCC1)Cc1cccc2ccccc12 (centres undefined)
inactive: dose: 25.0 mg/kg/injection, schedule: Q04DX003 (ip), vehicle: Klucel (hydroxypropylcellulose) (HPC) 109 % of control | dose: 50.0 mg/kg/injection, schedule: Q04DX003 (ip), vehicle: Klucel (hydroxypropylcellulose) (HPC) 98 % of control | [7] 96 % of control | [1] 95 % of control

O=C(Nc1ccccc1F)Oc1ccc([N+](=O)[O-])cc1
inactive: dose: 25.0 mg/kg/injection, schedule: Q01DX009 (ip), vehicle: Klucel (hydroxypropylcellulose) (HPC) 106 % of control | dose: 50.0 mg/kg/injection, schedule: Q01DX009 (ip), vehicle: Klucel (hydroxypropylcellulose) (HPC) 95 % of control | [8] 94 % of control and 112 % of control

O=c1[nH]cc(O)c(=O)[nH]1
inactive: dose: 50.0 mg/kg/injection, schedule: Q01DX001 (ip), vehicle: carboxymethylcellulose (CMC) 100 % of control | dose: 62.5 mg/kg/injection, schedule: Q#A X018 (ip), vehicle: saline 98 % of control | [4] 102 % of control | dose: 125.0 mg/kg/injection, schedule: Q#A X018 (ip), vehicle: saline 104 % of control | dose: 176.0 mg/kg/injection, schedule: Q01DX Z (ip), vehicle: carboxymethylcellulose (CMC) 107 % of control | [5] 107 % of control | dose: 250.0 mg/kg/injection, schedule: Q#A X018 (ip), vehicle: saline 115 % of control | dose: 267.0 mg/kg/injection, schedule: Q01DX015 (ip), vehicle: saline 115 % of control | dose: 267.0 mg/kg/injection, schedule: Q01DX Z (ip), vehicle: carboxymethylcellulose (CMC) 120 % of control | [6] 100 % of control | dose: 400.0 mg/kg/injection, schedule: Q01DX015 (ip), vehicle: saline 120 % of control | dose: 600.0 mg/kg/injection, schedule: Q01DX015 (ip), vehicle: saline 119 % of control

CC(=O)c1ccc(C(O)C(CO)NC(=O)C(Cl)Cl)cc1 (centres undefined)
inactive: [1] 100 % of control | [2] 103 % of control | [3] 103 % of control

COC1=CC(C)C2CC3OC(O)CC4C(C)=C(OC)C(=O)C(C2(C)C1=O)C34C (centres undefined)
inactive: [9] 102 % of control | [8] 91 % of control | [1] 96 % of control | [10] 105 % of control | [11] 100 % of control | [2] 97 % of control | [12] 105 % of control | dose: 400.0 mg/kg/injection, schedule: Q01DX009 (ip), vehicle: Klucel (hydroxypropylcellulose) (HPC) 94 % of control | [3] 96 % of control

NC(CSCc1ccc([N+](=O)[O-])cc1)C(=O)O (centres undefined)
inactive: [13] 102 % of control | [14] 105 % of control | [15] 96 % of control

CC(=O)CCC(C)N=Cc1ccc(N(C)C)cc1 (centres undefined)
inactive: [13] 92 % of control | [14] 91 % of control | [15] 89 % of control

CC(=N\O)/C(=N\O)C(=O)c1ccccc1
inactive: [7] 110 % of control | dose: 100.0 mg/kg/injection, schedule: Q04DX003 (ip), vehicle: saline with Tween-80 96 % of control | [16] 95 % of control | dose: 200.0 mg/kg/injection, schedule: Q04DX003 (ip), vehicle: saline with Tween-80 101 % of control | dose: 400.0 mg/kg/injection, schedule: Q04DX003 (ip), vehicle: saline with Tween-80 98 % of control

O=C(C#Cc1ccccc1)Nc1ccccc1
inactive: [1] 114 % of control | [2] 97 % of control | [3] 98 % of control

CCOP(=O)(CSCC)OCC
inactive: dose: 100.0 mg/kg/injection, schedule: Q01DX009 (ip), vehicle: saline 102 % of control | [13] 94 % of control | dose: 200.0 mg/kg/injection, schedule: Q01DX009 (ip), vehicle: saline 98 % of control | [14] 100 % of control | dose: 400.0 mg/kg/injection, schedule: Q01DX009 (ip), vehicle: saline 100 % of control | [15] 92 % of control

NC(CSc1ccc(Cl)cc1)C(=O)O (centres undefined)
inactive: dose: 100.0 mg/kg/injection, schedule: Q04DX003 (sc), vehicle: steriod suspending solution 86 % of control | dose: 200.0 mg/kg/injection, schedule: Q04DX003 (sc), vehicle: steriod suspending solution 86 % of control | dose: 400.0 mg/kg/injection, schedule: Q04DX003 (sc), vehicle: steriod suspending solution 92 % of control

CCCC(Cl)C(=O)Nc1cccc(O)c1 (centres undefined)
inactive: [7] 91 % of control | [16] 91 % of control

O=[N+]([O-])c1cccc(OCCOc2ccccc2)c1
inactive: dose: 25.0 mg/kg/injection, schedule: Q01DX009 (ip), vehicle: saline with Tween-80 116 % of control | dose: 33.0 mg/kg/injection, schedule: Q01DX009 (ip), vehicle: saline with Tween-80 98 % of control | dose: 75.0 mg/kg/injection, schedule: Q01DX009 (ip), vehicle: saline with Tween-80 96 % of control | [7] 102 % of control and 86 % of control | [16] 102 % of control | [17] 102 % of control

CCCC(N)C(=O)O (centres undefined)
inactive: [9] 106 % of control | [10] 103 % of control | [12] 95 % of control

CNN=C(C)C
inactive: dose: 12.5 mg/kg/injection, schedule: Q01DX001 (ip), vehicle: saline 94 % of control | dose: 12.5 mg/kg/injection, schedule: Q01DX009 (ip), vehicle: saline 105 % of control | dose: 12.5 mg/kg/injection, schedule: Q04DX003 (ip), vehicle: saline 96 % of control | dose: 25.0 mg/kg/injection, schedule: Q01DX001 (ip), vehicle: saline 94 % of control | dose: 25.0 mg/kg/injection, schedule: Q01DX009 (ip), vehicle: saline 100 % of control | dose: 25.0 mg/kg/injection, schedule: Q04DX003 (ip), vehicle: saline 98 % of control | dose: 50.0 mg/kg/injection, schedule: Q01DX001 (ip), vehicle: saline 97 % of control | dose: 50.0 mg/kg/injection, schedule: Q04DX003 (ip), vehicle: saline 98 % of control

Cc1ccc(-n2c(O)c(N=Nc3ccccc3C)c(=O)n(-c3ccccc3)c2=S)cc1
inactive: [9] 94 % of control | [10] 104 % of control | [12] 99 % of control

COc1cc(OC)c(OC)cc1/C=C\c1ccc2ccccc2[n+]1C
inactive: dose: 25.0 mg/kg/injection, schedule: Q04DX003 (ip), vehicle: saline with Tween-80 101 % of control | dose: 50.0 mg/kg/injection, schedule: Q04DX003 (ip), vehicle: saline with Tween-80 90 % of control

Cc1ccc(NC(=O)Nc2ccccc2C)c(C)c1
inactive: [8] 93 % of control | [1] 103 % of control | [11] 90 % of control | [2] 91 % of control | [3] 96 % of control

OCCc1ccc[nH]1
inactive: dose: 75.0 mg/kg/injection, schedule: Q01DX001 (ip), vehicle: saline 105 % of control | dose: 150.0 mg/kg/injection, schedule: Q01DX001 (ip), vehicle: saline 105 % of control | dose: 300.0 mg/kg/injection, schedule: Q01DX001 (ip), vehicle: saline 105 % of control

CC(C)(C)n1cc(C(=O)c2ccccc2)cc1-c1ccccc1
inactive: [7] 91 % of control | [16] 91 % of control | [17] 87 % of control

— PubChem BioAssay AID248 (DTP/NCI, 2004)
